Test results published in patent US8703698B2, “Compositions and methods for treating atherosclerosis” (The University of Chicago, priority 2003, dated 2014).
Where no end group is shown, it is not given here. [ ]: non-standard residue; d: D form.

Legend:
[1] = tested on: J774 macrophages; experiment: [3H]cholesterol efflux from cholesterol-loaded J774 macrophages in tissue culture; format: cell-based, mouse; settings: for cholesterol export enhancing activity, time course (FIG. 9) / cholesterol export enhancing activity relative to the human SAA1.1 78-96 containing liposomal formulation (FIG. 9): liposomal formulations, mouse J774 cells; for rate of [3H]cholesterol efflux into medium containing HDL: pre-incubation with liposomes containing 0.5 μM peptide, HDL as acceptor
[2] = tested on: [3H]-cholesterol-loaded J774 macrophages; experiment: In vivo cholesterol efflux to plasma in mice injected with [3H]-cholesterol-loaded J774 macrophages
Protocol: In these experiments, in vivo cholesterol export was determined in mice injected with J774 macrophages cholesterol-loaded with RBC membranes and [^3H]-cholesterol. Two hundred thousand macrophages in 100:1 PBS were injected into each mouse through the tail vein. At various time points thereafter, approximately 25:1 of blood were collected from the tail vein of each animal into heparinized capillary tubes. The tubes were then centrifuged for 5 minutes in an Adams Autocrit Centrifuge to separate red blood cells from plasma. Cholesterol efflux was determined by measuring the appearance of [^3H]-cholesterol in plasma by scintillation spectrometry. To study whether export of cholesterol from J774 cells to plasma was influenced by non-liposome formulated D-27mer peptide (SEQ ID NO:10), 24 hours after injection of cholesterol-loaded J774 macrophages into mice, the same animals received, by intravenous injection, 30 μg, 60 μg, 150 μg, 225 μg, 300 μg or 600 μg of D-27mer. All these amounts of D-peptides were dissolved in 100:l of phosphate buffered saline and injected through the tail vein of each animal.
Additional in vivo studies have also been conducted wherein mice were first injected intravenously with [^3H]cholesterol-laden macrophages and then injected 24 hours later with liposomes containing 0.5 μM of synthetic peptides corresponding to amino acid residues 1-20, 21-50, 51-80 or 74-103 of murine SAA2.1. Results from this study are depicted in FIG. 1. At time points indicated in the graph of FIG. 1, approximately 25 μl of blood were collected from the tail vein of each animal. The blood samples were centrifuged to separate the red blood cells from the plasma and the [^3H]-cholesterol in plasma was determined by scintillation counting. Results are mean±SEM of four determinations.
To determine cholesterol export in vivo, J774 macrophages were cholesterol-loaded with red blood cell membranes and [^3H]-cholesterol as described above. Cells were washed four times with PBS/BSA and then detached from the culture dishes. Five million cells in 200 μl DMEM were injected into control mice or inflamed mice through the tail vein. At various time points, approximately 25 μl of blood were collected from the tail vein of each animal into heparinized capillary tubes and then centrifuged for 5 minutes in an Adams Autocrit Centrifuge to separate red blood cells from plasma. Cholesterol efflux was determined by measuring the appearance of [^3H]-cholesterol in plasma by scintillation spectrometry.
J774 cells cultured in 6-well plates were enriched with cholesterol by incubating with red blood cell (RBC) membrane fragments (175:g as cholesterol) that had been previously labeled with 0.5:Ci/ml [^3H]-cholesterol at 37° C. for 24 hours in 0.2% bovine serum albumin (BSA). After loading with the labelled RBC membrane for 6 hours, cells were then washed with phosphate-buffered saline/BSA (PBS/BSA) three times followed by an 18 hour equilibration period during which monolayers were exposed to DMEM/BSA. To determine cholesterol export in vivo, J774 macrophages were cholesterol-loaded with RBC membranes and [^3H]-cholesterol as described previously above. Cells were washed four times with PBS/BSA and then detached from the culture dishes. Two hundred thousand cells in 100:l PBS were injected into mice through the tail vein. At various time points thereafter, approximately 25:l of blood were collected from the tail vein of each animal into heparinized capillary tubes. These tubes were then centrifuged for 5 minutes in an Adams Autocrit Centrifuge to separate red blood cells from plasma. Cholesterol efflux was determined by measuring the appearance of [^3H]-cholesterol in plasma by scintillation spectrometry. […]

[3] = tested on: cholesterol ester hydrolase; experiment: Rate of hydrolysis of cholesteryl ester in cholesterol-laden J774 cells (cholesterol ester hydrolase activity); format: cell-based, murine; settings: liposomes containing 0.5 μl synthetic peptide; J774 cells; Sandoz 58-035 present
Protocol: Identification of the domain of SAA2.1 that is responsible for enhancing cholesterol ester hydrolase activity was performed in J774 cells preloaded with radio-labeled cholesteryl esters. These experiments were performed in the presence of Sandoz 58-035, an inhibitor of acyl CoA:cholesterol acyl transferase activity, to prevent re-esterification of liberated cholesterol and [^14C]oleate. Incubations proceeded for times ranging from 0 to 24 hours, following which the remaining quantities of [^14C]-labeled cholesteryl oleate in cells were measured to determine the rate of hydrolysis of cholesteryl ester. […] However, an equivalent amount of liposomes containing the synthetic peptide corresponding to amino acid residues 74-103 of murine SAA2.1 caused a 3-fold increase in cholesterol ester hydrolase activity in these cholesterol-laden murine cells. Newly confluent J774 cells were labeled with [^14C]-oleate during cholesterol loading with red blood cell membranes as described above. Cells were then incubated for up to 24 hours with 2 mL of DMEM containing 5% LPDS and 50 μg/mL of either native HDL, SAA-HDL, liposomes containing 2 μmoles of apoA-1, SAA1.1 or 2.1, or liposomes containing 0.5:mol synthetic peptides corresponding to amino acid residues 1-20 (SEQ ID NO:1), 21-50 (SEQ ID NO:2), 51-80 (SEQ ID NO:3) and 74-103 (SEQ ID NO:4) of murine SAA2.1. To determine the rate of cholesteryl ester hydrolysis, 2 μg/mL of the acyl CoA:cholesterol acyl transferase inhibitor Sandoz 58-035 (propanimide, 3-(decyldimethylsilyl)-N-[2-(4-methylphenyl)-1-phenylethyl]-(9Cl) was added during incubation with lipoproteins or liposomes to prevent […] and free cholesterol. To examine whether or not the rate of cholesteryl ester hydrolysis involved the lysosomal cholesteryl ester hydrolase, the cells were cultured in the presence of 50 μg/mL of either native HDL and chloroquine or SAA-HDL and chloroquine (100:M). Chloroquine is an agent that neutralizes the lysosomal proton gradient. At various time points, cellular lipids were extracted and analyzed for cholesteryl ester radioactivity as described above.

[4] = biological target: T1, acyl CoA:cholesterol acyl transferase (Mus musculus, UniProt Q61263); experiment: Incorporation of [14C]oleate into cholesteryl ester in cholesterol-laden macrophages (ACAT activity); format: cell-based, murine; settings: liposomes containing 0.5 μM synthetic peptide; 6 hour incubation; cholesterol-laden murine cells
T1 construct: host or cells: J774 mouse macrophages, cholesterol-loaded
T1 sequence (Q61263 1-540): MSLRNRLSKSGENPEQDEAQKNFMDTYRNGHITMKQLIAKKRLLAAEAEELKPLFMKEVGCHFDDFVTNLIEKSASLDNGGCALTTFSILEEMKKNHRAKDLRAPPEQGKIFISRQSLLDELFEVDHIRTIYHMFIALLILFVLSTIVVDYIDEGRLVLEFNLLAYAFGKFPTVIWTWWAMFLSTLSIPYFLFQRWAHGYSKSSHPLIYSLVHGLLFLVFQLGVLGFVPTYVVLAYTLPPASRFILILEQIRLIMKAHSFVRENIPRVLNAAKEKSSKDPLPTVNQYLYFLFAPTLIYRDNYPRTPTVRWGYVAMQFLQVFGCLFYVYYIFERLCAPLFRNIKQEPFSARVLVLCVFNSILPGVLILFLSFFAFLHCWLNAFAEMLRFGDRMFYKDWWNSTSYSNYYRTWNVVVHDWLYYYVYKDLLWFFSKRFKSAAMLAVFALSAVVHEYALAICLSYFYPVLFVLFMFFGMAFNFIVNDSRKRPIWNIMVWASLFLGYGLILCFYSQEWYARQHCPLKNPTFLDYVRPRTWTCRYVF
Protocol: The incorporation of [^14C]oleate into cholesteryl ester was used as a measure of acyl CoA:cholesterol acyl transferase activity to identify compositions inhibiting the enzyme activity. The relative acyl CoA:cholesterol acyl transferase activity was determined in cholesterol-laden murine cells that had been cultured in medium in the absence of liposomes or in the presence of protein-free liposomes or liposomes containing 0.5 μM synthetic peptides corresponding to amino acids 1-20, 21-50, 51-80 and 74-103 of murine SAA2.1.
To load the cells with cholesterol, nearly confluent mono-layers were washed 3 times with phosphate buffered saline containing 2 mg/mL fatty acid-free bovine serum albumin (PBS-BSA) and incubated for 5 hours in DMEM supplemented with 5% lipoprotein-depleted serum (LPDS) (d>1.25 g/mL) and 175 μg of red blood cell membrane cholesterol. For the purpose of pool equilibration of added cholesterol, cell cultures were rinsed twice with PBS-BSA and incubated overnight in DMEM containing 5% LPDS. The relative activity of acyl CoA:cholesterol acyl transferase was determined in cholesterol-laden cells that had been cultured in medium containing no liposomes, protein-free liposomes or liposomes containing 0.5:M synthetic peptides corresponding to amino acid residues 1-20 (SEQ ID NO:1), 21-50 (SEQ ID NO:2), 51-80 (SEQ ID NO:3) or 74-103 (SEQ ID NO:4) of murine SAA2.1, respectively. Following 3 hours incubation with the above media, [^14C]-oleate was added and the cells were incubated for another 3 hour period (Mendez et al. J. Clin. Invest. 1994 94:1698-1705; Oram et al. Arterioscler. Thromb. 1991 11:403-414). Cells were chilled on ice and washed twice with PBS-BSA and twice with PBS. After addition of [^3H]-cholesteryl oleate (6000 dpm/well) as an internal standard, the lipids were extracted from the labeled cells and analyzed by thin-layer chromatography as described by Mendez et al. (J. Clin. Invest. 1994 94:1698-1705) and Oram et al. (Arterioscler. Thromb. 1991 11:403-414). The radioactivity in appropriate spots was measured to determine the incorporation of radioactivity into cholesteryl esters as a measure of acyl CoA:cholesterol acyl transferase activity.

For “AANKWGRSGRDPNHFR [SEQ ID NO:28, residues 81-96 of human SAA2.1]”, the “cholesterol export enhancing activity, time course (FIG. 9)” value [1] was “little to no cholesterol export enhancing activity”.
For “ADQAANKWGRSGRDPNHFR [SEQ ID NO:11, residues 78-96 of human SAA2.1]”, the “cholesterol export enhancing activity relative to the human SAA1.1 78-96 containing liposomal formulation (FIG. 9)” value [1] was “about half”.
For “ADQEANRHGRSGKDPNYYRPPGLPAKY [SEQ ID NO:10] ([dA][dD][dQ][dE][dA][dN][dR][dH]G[dR][dS]G[dK][dD][dP][dN][dY][dY][dR][dP][dP]G[dL][dP][dA][dK][dY]) [residues 77-103 of murine SAA1.1, all D-amino acids]”, the “duration of increase in cholesterol efflux (FIG. 12)” value ([2]; following oral and intravenous administration) was “at least 4 days”, the “radiolabeled cholesterol exported in the plasma (FIG. 15)” value ([2]; non-liposome formulated, in 100 μl PBS, intravenous, 15 μg/mouse peptide or 75 μg/mouse full length protein) was “caused an increase in cholesterol exported in the plasma” and the “[3H]-cholesterol efflux as plasma radioactivity (dpm) (FIG. 11)” value ([2]; non-liposome formulated, in PBS, intravenous, 30 to 600 μg per mouse) was “dose-dependent increase”. The “efficacy on oral administration to fasted animals versus animals receiving food (FIG. 16)” value ([2]; non-liposome formulated, oral, 300 μg) was “further enhanced”, the “cholesterol exported to the plasma at 24 hours, PBS containing 5% weight/volume glucose versus PBS (FIG. 13)” value ([2]; non-liposome formulated, oral, same dose) was “higher” and the “efficacy with smaller volume vehicle containing the same amount of peptide (FIG. 16)” value ([2]; oral, 300 μg in 100 μl versus 500 μl PBS, fasted and fed mice) was “efficacy was enhanced”.
“DQAANKWGRSGRDPNHFR [SEQ ID NO:26, residues 79-96 of human SAA2.1]” was tested, and the “cholesterol export enhancing activity relative to the human SAA1.1 78-96 containing liposomal formulation (FIG. 9)” value [1] was “about half”.
“QAANKWGRSGRDPNHFR [SEQ ID NO:27, residues 80-96 of human SAA2.1]” was tested, and the “cholesterol export enhancing activity, time course (FIG. 9)” value [1] was “little to no cholesterol export enhancing activity”.
In the case of “RSFFSFLGEAFDGARDMWRAYSD [SEQ ID NO:6, synthetic peptide, residues 1-23 of human SAA1.1 and/or SAA2.1]”, the “[3H]-cholesterol efflux as plasma radioactivity (dpm) (FIG. 1)” value ([2]; intravenous liposomes containing 0.5 μM peptide, 24 hours after macrophages) is reported as “promoted in vivo cholesterol export”.
In the case of “TDMKEANWKNSDKYFHARGNYDAAQRGPGG [SEQ ID NO:2, synthetic peptide, residues 21-50 of murine SAA2.1]”, the “rate of hydrolysis of [14C]-labeled cholesteryl oleate versus protein-free liposomes” value [3] is reported as “no significant differences”, the “relative acyl CoA:cholesterol acyl transferase activity” value [4] is reported as “no significant effect” and the “rate of [3H]cholesterol efflux into medium containing HDL” value [1] is reported as “did not cause any significant changes”.
For “VWAAEKISDGREAFQEFFGRGHEDTIADQE [SEQ ID NO:3, synthetic peptide, residues 51-80 of murine SAA2.1]”, the “rate of hydrolysis of [14C]-labeled cholesteryl oleate versus protein-free liposomes” value [3] was “no significant differences”, the “relative acyl CoA:cholesterol acyl transferase activity” value [4] was “no significant effect” and the “rate of [3H]cholesterol efflux into medium containing HDL” value [1] was “did not cause any significant changes”.
